Like-named read-outs stand apart in the source and are kept apart here.
What was measured:
[1] = test system: immortalized normal prostatic epithelial cells (E6); assay: Growth inhibition by DNA assay, immortalized normal prostatic epithelial cells (E6); type: cell-based
DU-145 cells = assay: Growth inhibition by DNA fluorescence assay, cells grown in 5% FBS, 72 h after drug treatment; type: cell-based; conditions: DNA fluorescence 72 h after drug treatment
Method: The growth inhibitory effects of LNM against LNCaP and DU-145 cell lines grown in 5% FBS were determined by measuring DNA fluorescence 72 h after drug treatment. […] Growth inhibitory effects of LNM against LNCaP and DU-145 cells were expressed as percent of control untreated cells are shown in FIG. 7.

LNCaP cells [2] = assay: Growth inhibition by DNA assay, LNCaP cells in androgen-depleted medium, untreated or pretreated with R1881 (with or without vitamin E succinate); type: cell-based
Method: To test whether TG-25 was activated under oxidative stress, LNCaP cells were grown in androgen-depleted medium in the presence of 0.01 nM and 1 nM androgen analog R1881 for 96 h. […] This concentration was also close to the range of concentration of the active androgen dihydrotestosterone found in normal human male and patients treated with androgen ablation therapy. The growth inhibitory effect of LNM and TG-25 against LNCaP cells either untreated or pretreated with R1881 as shown in FIG. 9 and FIG. 10, respectively. Under these treatment conditions, 0.01 nM R1881 stimulated growth by about 30% and 1 nM R1881 inhibited cell growth to about 40% of the control untreated cells. The data shown in FIG. 9 and FIG. 10 are normalized for the growth stimulatory or inhibitory effects of R1881 alone.
The effect of LNM and TG-25 against LNCaP cells pretreated with both R1881 and α-tocopherol succinate are shown in FIG. 11 and FIG. 12, respectively. All data for pretreated cells were normalized for the growth inhibition induced by α-tocopherol succinate plus R1881.

LNCaP cells [3] = conditions: cited from earlier work; for cellular ROS level: 96 h
[4] = In vitro oxidation of purified TG-25 on exposure to O2; type: physicochemical; conditions: aqueous or methanol solution
Text: Three additional minor metabolites were also characterized from the ΔlnmE strain, and their structures were elucidated by the combination of MS, ^1H- and ^13C—NMR, and various 2D NMR spectroscopic methods as discussed above (compound 1, 2, 4, and 5 as shown in FIG. 6) Although these compounds were isolated in minor quantities and were apparently derived from TG-25 during the isolation, their structures were critical in helping to define the oxidative activation of TG-25 undergo rearrangement via an episulfornium ion intermediate (FIG. 6). It was clear by comparing the structure of TG-25 with those of 1 and 2 that an oxidation step was required for their conversion. Isolation of compound 4 shed light into how this oxidative rearrangement from TG-25 to 1 or 2 actually happens. Thus, as depicted in FIG. 6 TG-25 apparently was first oxidized by O2 to form the dimmer 4, activating the sulfhydryl group into a disulfide. Nucleophilic attack of the disulfide by the double bond could then be envisaged to form an episulfonium ion intermediate, in a mechanistic analogy to LNM, that subsequently could be trapped by H2O (leading the formation of 1) or methanol (leading to the formation of 2). This hypothesis was confirmed by re-producing the chemistry in vitro with purified TG-25.

With `C/C1=C\[C@@H](O)C(=O)/C=C/C=C\c2csc(n2)[C@@H](C)NC(=O)C[C@@]2(CC1)[S+]([O-])SC(=O)[C@]2(C)O` (stereo partly drawn) [LNM, leinamycin] the IC50 ([1]; Epithelial cell, read-out: IC50, growth inhibition) was < 0.0002 µM, the “growth inhibitory effect compared with the prostate cancer cell lines” value ([1]; immortalized normal prostatic epithelial cells vs LNCaP and DU-145) was “stronger growth inhibitory effect” and the “sensitivity of DU-145 cells compared with LNCaP cells” value (DU-145 cells) was “slightly more sensitive to LNM”. For the same compound, the “growth inhibitory effect in androgen depleted medium compared with 5% FBS” value (LNCaP cells [2]; LNCaP cells) was “more pronounced”, the “influence of R1881 pretreatment on growth inhibition” value (LNCaP cells [2]; LNCaP cells pretreated with 0.01 nM or 1 nM R1881) was “not appreciably affected” and the “influence of α-tocopherol succinate on growth inhibition” value (LNCaP cells [2]; LNM alone or in combination with R1881, LNCaP cells) was “no effect”.

In the case of `C[C@]1(O)CC[C@H]2[C@@H]3CCC4=CC(=O)CCC4=C3C=C[C@@]21C` [Compound R1881], the “growth stimulation by R1881 alone” value (LNCaP cells [2]; 0.01 nM R1881, 96 h, androgen-depleted medium) is listed as “about 30%”, the “cell growth with R1881 alone” value (LNCaP cells [2]; 1 nM R1881, 96 h, androgen-depleted medium) is listed as “about 40 % of the control untreated cells” and the “cellular ROS level” value (LNCaP cells [3]; 0.01 nM R1881, LNCaP cells) is listed as “reduces the cellular ROS”. For the same compound, the “cellular ROS level” value (LNCaP cells [3]; 1 nM R1881, LNCaP cells) was “increases cellular ROS level”.

For `Cc1c(C)c2c(c(C)c1OC(=O)CCC(=O)O)CCC(C)(CCCC(C)CCCC(C)CCCC(C)C)O2` (stereo not drawn) [α-tocopherol (vitamin E) succinate], the “effect on the increase in ROS level by 1 nM R1881 pretreatment” value (LNCaP cells [3]; co-treatment of LNCaP cells) is given as “can be inhibited”.

For `C/C1=C\CC(=O)/C=C/C=C\c2csc(n2)[C@@H](C)NC(=O)C[C@@](S)(C(C)C(=O)O)CC1` (stereo partly drawn) [TG-25], the growth inhibitory effect ([1]; immortalized normal prostatic epithelial cells, up to μM concentration) was “little growth inhibitory effect even at μM concentration”, the “conversion upon exposure to O2” value [4] was “rapidly converted to 1 or 2” and the IC50 (LNCaP cells [2]; Homo sapiens, LNCaP cells pretreated with 1 nM androgen analog R1881, read-out: IC50, growth inhibition of LNCaP prostate cancer cells) was 5 to 10 µM. For the same compound, the “growth inhibitory effect after co-pretreatment with R1881 and vitamin E (α-tocopherol succinate)” value (LNCaP cells [2]; LNCaP cells pretreated with 1 nM R1881 plus α-tocopherol succinate, normalized for pretreatment alone) was “completely reverses the growth inhibitory effect”, the “growth inhibitory effect against cells pretreated with 0.01 nM R1881” value (LNCaP cells [2]; LNCaP cells, 0.01 nM R1881 for 96 h) was “no effect” and the “growth inhibitory effect against R1881 pretreated cells” value (LNCaP cells [2]; LNCaP cells, R1881 pretreated (high oxidative stress)) was “markedly inhibited the growth”. For the same compound, the “growth inhibitory effect against control untreated cells” value (LNCaP cells [2]; LNCaP cells, androgen-depleted medium, no R1881) was “no effect”.

Source: US7345069B2, “Oxidative activation and episulfonium ion-mediated DNA alkylation-based anticancer” (Wisconsin Alumni Research Foundation, priority 2004, dated 2008)
